Test system: 168753-222-R-J1-PDC complex spheroid viability
Assay: Anticancer human tumor 168753-222-R-J1-PDC patient-derived bladder carcinoma cell line growth inhibition [CLK]
Settings: for IC50: curve of first compound; for viability, T/C: stronger effect = lower value; active = viability on the fitted dose curve at most 10% of control; inactive = the rest
Summary of the method: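 Patient-derived tumor cells grown as complex spheroids with HUVEC endothelial cells and mesenchymal stem cells, treated with drug combinations. Concentrations descend in half-log steps from near clinical Cmax, or from 10 microM if Cmax unknown.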
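Note: viability measured after seven days of drug exposure.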
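Throughout, for viability, T/C: luminescence signal used as surrogate for viable cell amount; 100% = DMSO vehicle control wells.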

C=CC(=O)Nc1cc(Nc2nccc(-c3cn(C)c4ccccc34)n2)c(OC)cc1N(C)CCN(C)C + CN1CCN(c2cc(C(=O)Nc3cc4cc(-c5cnn(C)c5)ccc4cn3)ccn2)CC1
> 0.3 µM: IC50 (second compound 0.0316 µM)
inactive: viability, T/C (second compound 0.0316 µM, first compound 0.000949 µM) 117% | viability, T/C (second compound 0.0316 µM, first compound 0.003 µM) 113% | viability, T/C (second compound 0.0316 µM, first compound 0.00949 µM) 105% | viability, T/C (second compound 0.0316 µM, first compound 0.03 µM) 114% | viability, T/C (second compound 0.0316 µM, first compound 0.0949 µM) 103% | viability, T/C (second compound 0.0316 µM, first compound 0.3 µM) 108% | viability, T/C (second compound 0.1 µM, first compound 0.000949 µM) 65.7% | viability, T/C (second compound 0.1 µM, first compound 0.003 µM) 71.8% | viability, T/C (second compound 0.1 µM, first compound 0.00949 µM) 53.4% | viability, T/C (second compound 0.1 µM, first compound 0.03 µM) 77% | viability, T/C (second compound 0.1 µM, first compound 0.0949 µM) 21.2% | viability, T/C (second compound 0.1 µM, first compound 0.3 µM) 54.9% | viability, T/C (second compound 0.316 µM, first compound 0.000949 µM) 10.4%
active: viability, T/C (second compound 0.316 µM, first compound 0.003 µM) 8.73% | viability, T/C (second compound 0.316 µM, first compound 0.00949 µM) 9.29% | viability, T/C (second compound 0.316 µM, first compound 0.03 µM) 6.59% | viability, T/C (second compound 0.316 µM, first compound 0.0949 µM) 5.77% | viability, T/C (second compound 0.316 µM, first compound 0.3 µM) 1.61% | viability, T/C (second compound 1 µM, first compound 0.000949 µM) 0.14% | viability, T/C (second compound 1 µM, first compound 0.003 µM) 0.17% | viability, T/C (second compound 1 µM, first compound 0.00949 µM) 0.15% | viability, T/C (second compound 1 µM, first compound 0.03 µM) 0.32% | viability, T/C (second compound 1 µM, first compound 0.0949 µM) 0.13% | viability, T/C (second compound 1 µM, first compound 0.3 µM) 0.91% | viability, T/C (second compound 3.16 µM, first compound 0.000949 µM) 0.1% | viability, T/C (second compound 3.16 µM, first compound 0.003 µM) 0.13% | viability, T/C (second compound 3.16 µM, first compound 0.00949 µM) 0.21% | viability, T/C (second compound 3.16 µM, first compound 0.03 µM) 0.09% | viability, T/C (second compound 3.16 µM, first compound 0.0949 µM) 0.17% | viability, T/C (second compound 3.16 µM, first compound 0.3 µM) 2.63% | viability, T/C (second compound 10 µM, first compound 0.000949 µM) 0.15% | viability, T/C (second compound 10 µM, first compound 0.003 µM) 0.28% | viability, T/C (second compound 10 µM, first compound 0.00949 µM) 0.5% | viability, T/C (second compound 10 µM, first compound 0.03 µM) 0.15% | viability, T/C (second compound 10 µM, first compound 0.0949 µM) 0.27% | viability, T/C (second compound 10 µM, first compound 0.3 µM) 0.37%
< 0.000949 µM: IC50 (second compound 0.316 µM) | IC50 (second compound 1 µM) | IC50 (second compound 3.16 µM) | IC50 (second compound 10 µM)
0.0589 µM: IC50 (second compound 0.1 µM)

CC1(C)CCC(CN2CCN(c3ccc(C(=O)NS(=O)(=O)c4ccc(NCC5CCOCC5)c([N+](=O)[O-])c4)c(Oc4cnc5[nH]ccc5c4)c3)CC2)=C(c2ccc(Cl)cc2)C1 + CN1CCN(c2cc(C(=O)Nc3cc4cc(-c5cnn(C)c5)ccc4cn3)ccn2)CC1
0.675 µM: IC50 (second compound 0.0316 µM)
0.154 µM: IC50 (second compound 0.1 µM)
active: viability, T/C (second compound 0.316 µM, first compound 0.1 µM) 10.3% | viability, T/C (second compound 0.316 µM, first compound 0.316 µM) 8.72% | viability, T/C (second compound 0.316 µM, first compound 1 µM) 8.03% | viability, T/C (second compound 0.316 µM, first compound 3.16 µM) 8.36% | viability, T/C (second compound 0.316 µM, first compound 10 µM) 7.08% | viability, T/C (second compound 1 µM, first compound 0.0316 µM) 0.25% | viability, T/C (second compound 1 µM, first compound 0.1 µM) 0.31% | viability, T/C (second compound 1 µM, first compound 0.316 µM) 0.77% | viability, T/C (second compound 1 µM, first compound 1 µM) 0.22% | viability, T/C (second compound 1 µM, first compound 3.16 µM) 0.16% | viability, T/C (second compound 1 µM, first compound 10 µM) 1.27% | viability, T/C (second compound 3.16 µM, first compound 0.0316 µM) 0.41% | viability, T/C (second compound 3.16 µM, first compound 0.1 µM) 0.29% | viability, T/C (second compound 3.16 µM, first compound 0.316 µM) 0.71% | viability, T/C (second compound 3.16 µM, first compound 1 µM) 0.15% | viability, T/C (second compound 3.16 µM, first compound 3.16 µM) 1.14% | viability, T/C (second compound 3.16 µM, first compound 10 µM) 0.49% | viability, T/C (second compound 10 µM, first compound 0.0316 µM) 0.2% | viability, T/C (second compound 10 µM, first compound 0.1 µM) 0.75% | viability, T/C (second compound 10 µM, first compound 0.316 µM) 0.51% | viability, T/C (second compound 10 µM, first compound 1 µM) 0.26% | viability, T/C (second compound 10 µM, first compound 3.16 µM) 0.35% | viability, T/C (second compound 10 µM, first compound 10 µM) 1.21%
< 0.0316 µM: IC50 (second compound 0.316 µM) | IC50 (second compound 1 µM) | IC50 (second compound 3.16 µM) | IC50 (second compound 10 µM)
inactive: viability, T/C (second compound 0.0316 µM, first compound 0.0316 µM) 74.8% | viability, T/C (second compound 0.0316 µM, first compound 0.1 µM) 84.6% | viability, T/C (second compound 0.0316 µM, first compound 0.316 µM) 55.5% | viability, T/C (second compound 0.0316 µM, first compound 1 µM) 41.3% | viability, T/C (second compound 0.0316 µM, first compound 3.16 µM) 31.6% | viability, T/C (second compound 0.0316 µM, first compound 10 µM) 10.2% | viability, T/C (second compound 0.1 µM, first compound 0.0316 µM) 69.7% | viability, T/C (second compound 0.1 µM, first compound 0.1 µM) 60.5% | viability, T/C (second compound 0.1 µM, first compound 0.316 µM) 28.1% | viability, T/C (second compound 0.1 µM, first compound 1 µM) 35.8% | viability, T/C (second compound 0.1 µM, first compound 3.16 µM) 33.7% | viability, T/C (second compound 0.1 µM, first compound 10 µM) 10.3% | viability, T/C (second compound 0.316 µM, first compound 0.0316 µM) 10.3%

Source: PubChem BioAssay AID2060626 (Molecular Pharmacology Branch, DTP, NCI, 2025)
